Assays:
[1] = biological target: PDE5 enzymes isolated from the lungs and hearts of male guinea pigs; conditions: cited from earlier work
[2] = biological target: T1, PDE5 (PDE5A1) (Homo sapiens, UniProt O76074); test: Phosphodiesterase 5 inhibition assay (two-step radioactive procedure, [3H]cGMP); type: biochemical; conditions: for IC50: flavonoids, mean ± SD, triplicate
T1 construct: made in house; host or cells: HEK293 (transient transfection; supernatant of sonicated homogenate)

[3] = system: PDE5 enzymes isolated from the mice lungs; design: method as in PMID 25920267; conditions: cited from earlier work
[4] = system: rabbit corpus cavernosum tissues; design: method as in PMID 17968465; conditions: rabbit tissue; cited from earlier work

Row | Compound | PDE5 IC50 level (in words) [2] | IC50 [2] [µM] | PDE5 inhibitory activity of 3 relative to 1, 2 and 4 ([2]; times stronger than 1, 2, and 4) | IC50 [1] [µM] | PDE5 inhibition (in words) [3] | Relaxant effect on corpus cavernosum tissues [4]
1 | COc1c(-c2ccc(O)c(O)c2)oc2cc(O)cc(O)c2c1=O [Compound 4, 3-O-methylquercetin] | micromolar level | 5.74 ± 2.11 | – | 86.9 | – | –
2 | O=c1c(O)c(-c2ccc(O)cc2)oc2cc(O)cc(O)c12 [Compound 5, kaempferol] | – | – | – | – | inhibit PDE5 enzymes | –
3 | O=c1c(O)c(-c2ccc(O)c(O)c2)oc2cc(O)cc(O)c12 [Compound 3, quercetin] | micromolar level | 0.61 ± 0.11 | 7–9 times | – | inhibit PDE5 enzymes | –
4 | COc1c(-c2ccc(O)cc2)oc2cc(O)cc(O)c2c1=O [Compound 6, 3-O-methylkaempferol] | micromolar level | 4.41 ± 0.46 | – | – | – | –
5 | COc1ccc(C[C@@H]2c3cc(Oc4cc(C[C@@H]5c6cc(OC)c(OC)cc6CCN5C)ccc4O)c(OC)cc3CCN2C)cc1 [Neferine] | – | – | – | – | – | relaxant effect

The next lines start with results.

Row | PDE5 IC50 level (in words) [2] | IC50 [2] [µM] | PDE5 inhibitory activity of 3 relative to 1, 2 and 4 ([2]; times stronger than 1, 2, and 4) | Compound | IC50 [1] [µM] | PDE5 inhibition (in words) [3] | Relaxant effect on corpus cavernosum tissues [4]
6 | micromolar level | 5.63 ± 0.2 | – | COc1c(-c2ccc(O)c(OC3OCC(O)C(O)C3O)c2)oc2cc(O)cc(O)c2c1=O (stereo not drawn) [Compound 2, quercetin 3-methyl ether 3’-O-β-xylopyranoside] | – | – | –
7 | micromolar level | 4.09 ± 0.76 | – | O=c1c(O)c(-c2ccc(O)c(O[C@@H]3OC[C@@H](O)[C@H](O)[C@H]3O)c2)oc2cc(O)cc(O)c12 [Compound 1, quercetin 3’-O-β-xylopyranoside] | – | – | –

— article PMC10420992, “Phosphodiesterase 5 and Arginase Inhibitory Activities of the Extracts from Some Members of Nelumbonaceae and Nymphaeaceae Families” (Molecules, 2023)
